Test results reported in US10807970B2 (priority 2016, dated 2020).

target: human σ1 receptor (Homo sapiens, UniProt Q99720); assay: Human σ1 receptor radioligand assay ([3H](+)-pentazocine, transfected HEK-293 membranes); type: binding; set-up: μ and σ1 dual binding: key to the marks not given beside the values; conditions: one class symbol for both Ki-σ1 (human σ1 receptor, A1) and Ki-μ (human μ-opioid receptor, A2)
Procedure: Human σ1 Receptor Radioligand Assay
To investigate binding properties of test compounds to human σ1 receptor, transfected HEK-293 membranes and [^3H](+)-pentazocine (Perkin Elmer, NET-1056), as the radioligand, were used. The assay was carried out with 7 μg of membrane suspension, 5 nM of [^3H](+)-pentazocine in either absence or presence of either buffer or 10 μM Haloperidol for total and non-specific binding, respectively. Binding buffer contained Tris-HCl 50 mM at pH 8. Plates were incubated at 37° C. for 120 minutes. After the incubation period, the reaction mix was then transferred to MultiScreen HTS, FC plates (Millipore), filtered and plates were washed 3 times with ice-cold 10 mM Tris-HCL (pH7.4). Filters were dried and counted at approximately 40% efficiency in a MicroBeta scintillation counter (Perkin-Elmer) using EcoScint liquid scintillation cocktail

human σ1 receptor, sequence (Q99720 whole entry): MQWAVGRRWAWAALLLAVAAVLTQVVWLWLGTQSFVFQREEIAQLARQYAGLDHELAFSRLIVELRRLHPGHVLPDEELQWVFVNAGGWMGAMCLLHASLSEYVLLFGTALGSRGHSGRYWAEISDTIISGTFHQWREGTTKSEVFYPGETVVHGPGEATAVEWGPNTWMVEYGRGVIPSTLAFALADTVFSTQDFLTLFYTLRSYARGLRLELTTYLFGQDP

Row | Structure (SMILES) | μ and σ1 dual binding
1 | CC1(C)CC(C(=O)c2ccccn2)(N2CCN(CCOCC(F)(F)F)CC2)CCO1 (stereo not drawn) [Example 69, (2,2-dimethyl-4-(4-(2-(2,2,2-trifluoroethoxy)ethyl)piperazin-1-yl)tetrahydro-2H-pyran-4-yl)(pyridin-2-yl)methanone] | ++
2 | CC(C)(O)COCCN1CCN(C2(C(=O)c3ccccn3)CCOC(C)(C)C2)CC1 (stereo not drawn) [Example 70, (4-(4-(2-(2-hydroxy-2-methylpropoxy)ethyl)piperazin-1-yl)-2,2-dimethyltetrahydro-2H-pyran-4-yl)(pyridin-2-yl)methanone] | ++
3 | CC(C)OCCN1CCN(C2(C(=O)c3ccccn3)CC(C)(C)OC(C)(C)C2)CC1 [Example 72, (4-(4-(2-isopropoxyethyl)piperazin-1-yl)-2,2,6,6-tetramethyltetrahydro-2H-pyran-4-yl)(pyridin-2-yl)methanone] | ++
4 | CC(C)OCCN1CC2CN(C3(C(=O)c4ccccn4)CCOC(C)(C)C3)CC2C1 (stereo not drawn) [Example 73, (4-(5-(2-isopropoxyethyl)hexahydropyrrolo[3,4-c]pyrrol-2(1H)-yl)-2,2-dimethyltetrahydro-2H-pyran-4-yl)(pyridin-2-yl)methanone] | ++
5 | CC(C)OCCN1CCN(C2(C(=O)c3ccccn3)CCOC2)CC1 (stereo not drawn) [Example 74, (3-(4-(2-isopropoxyethyl)piperazin-1-yl)tetrahydrofuran-3-yl)(pyridin-2-yl)methanone] | ++
6 | CCC1(N2CCN(CCC(C)C)CC2)CCOC(C)(C)C1 (stereo not drawn) [Example 78, 1-(4-ethyl-2,2-dimethyltetrahydro-2H-pyran-4-yl)-4-isopentylpiperazine] | ++
7 | CC(C)CCN1CCN(C2(C)CCOC(C)(C)C2)CC1 (stereo not drawn) [Example 79, 1-isopentyl-4-(2,2,4-trimethyltetrahydro-2H-pyran-4-yl)piperazine] | ++
8 | CCC1(N2CCN(CCc3ccncc3)CC2)CCOC(C)(C)C1 (stereo not drawn) [Example 82, 1-(4-ethyl-2,2-dimethyltetrahydro-2H-pyran-4-yl)-4-(2-(pyridin-4-yl)ethyl)piperazine] | ++
9 | CCC1(N2CCN(CCc3cccnc3)CC2)CCOC(C)(C)C1 (stereo not drawn) [Example 83, 1-(4-ethyl-2,2-dimethyltetrahydro-2H-pyran-4-yl)-4-(2-(pyridin-3-yl)ethyl)piperazine] | ++
10 | CCC1(N2CCN(CCc3ccncc3F)CC2)CCOC(C)(C)C1 (stereo not drawn) [Example 84, 1-(4-ethyl-2,2-dimethyltetrahydro-2H-pyran-4-yl)-4-(2-(3-fluoropyridin-4-yl)ethyl)piperazine] | ++
11 | CCC1(N2CCN(CCc3ccccn3)CC2)CCOC(C)(C)C1 (stereo not drawn) [Example 87, 1-(4-ethyl-2,2-dimethyltetrahydro-2H-pyran-4-yl)-4-(2-(pyridin-2-yl)ethyl)piperazine] | ++
12 | CC(C)(O)CCN1CCN(C2(C(=O)c3ccccn3)CCOC(C)(C)C2)CC1 (stereo not drawn) [Example 90, (4-(4-(3-hydroxy-3-methylbutyl)piperazin-1-yl)-2,2-dimethyltetrahydro-2H-pyran-4-yl)(pyridin-2-yl)methanone] | ++
13 | CC(C)OCCN1CCN([C@@]2(C(=O)c3ccccn3)CCO[C@H](C)C2)CC1 [Example 95] | ++
14 | CC(C)CCN1CCN([C@@]2(C(=O)c3ccccn3)CCO[C@H](C)C2)CC1 [Example 97] | ++
15 | CC(C)C1(N2CCN(CCc3cccc(F)c3F)CC2)CCOC(C)(C)C1 (stereo not drawn) [Example 101, 1-(2,3-difluorophenethyl)-4-(4-isopropyl-2,2-dimethyltetrahydro-2H-pyran-4-yl)piperazine] | ++
16 | CC(C)CN1CCC(C2(C(=O)c3ccccn3)CCOC(C)(C)C2)CC1 (stereo not drawn) [Example 102, (4-(1-isobutylpiperidin-4-yl)-2,2-dimethyltetrahydro-2H-pyran-4-yl)(pyridin-2-yl)methanone] | ++
17 | CCOCCN1CCC(C2(C(=O)c3ccccn3)CCOC(C)(C)C2)CC1 (stereo not drawn) [Example 104] | ++
18 | CC1(C)CC(C(=O)c2ccccn2)(C2CCN(Cc3ccc(F)cc3)CC2)CCO1 (stereo not drawn) [Example 109, (4-(1-(4-fluorobenzyl)piperidin-4-yl)-2,2-dimethyltetrahydro-2H-pyran-4-yl)(pyridin-2-yl)methanone] | ++

same assay, conditions: one class symbol for both Ki-σ1 (human σ1 receptor, A1) and Ki-μ (human μ-opioid receptor, A2); read-out: μ and σ1 dual binding

Row | Structure (SMILES) | Ki
19 | CC(C)OCCN1CCC(C2(C(=O)c3ccccn3)CCOC(C)(C)C2)CC1 (stereo not drawn) [Example 77, (4-(1-(2-isopropoxyethyl)piperidin-4-yl)-2,2-dimethyltetrahydro-2H-pyran-4-yl)(pyridin-2-yl)methanone] | < 500 nM
20 | CC1(C)CC(C(=O)c2ccccn2)(N2CCN(CCc3cccnc3)CC2)CCO1 (stereo not drawn) [Example 80, (2,2-dimethyl-4-(4-(2-(pyridin-3-yl)ethyl)piperazin-1-yl)tetrahydro-2H-pyran-4-yl)(pyridin-2-yl)methanone] | > 500 nM
21 | CC1(C)CC(C(=O)c2ccccn2)(N2CCN(CCc3ccncc3)CC2)CCO1 (stereo not drawn) [Example 81, (2,2-dimethyl-4-(4-(2-(pyridin-4-yl)ethyl)piperazin-1-yl)tetrahydro-2H-pyran-4-yl)(pyridin-2-yl)methanone] | > 500 nM
22 | CC(C)OCCN1CCN([C@]2(C(=O)c3ccccn3)CCO[C@@H](C)C2)CC1 [Example 96] | > 500 nM
23 | CC(C)CCN1CCN([C@]2(C(=O)c3ccccn3)CCO[C@@H](C)C2)CC1 [Example 98] | < 500 nM
24 | CCOCCCN1CCC(C2(C(=O)c3ccccn3)CCOC(C)(C)C2)CC1 (stereo not drawn) [Example 103] | > 500 nM

same assay, conditions: μ and σ1 dual binding, one class symbol for both Ki-σ1 (human σ1 receptor, A1) and Ki-μ (human μ-opioid receptor, A2)

Row | Structure (SMILES) | Ki
25 | CC(C)OCCCN1CCN(C2(C(=O)c3ccccn3)CCOC(C)(C)C2)CC1 (stereo not drawn) [Example 71, (4-(4-(3-isopropoxypropyl)piperazin-1-yl)-2,2-dimethyltetrahydro-2H-pyran-4-yl)(pyridin-2-yl)methanone] | < 500 nM
26 | CC(C)OCCN1CCC(C2(c3ccccn3)CCOC(C)(C)C2)CC1 (stereo not drawn) [Example 75, 2-(4-(1-(2-isopropoxyethyl)piperidin-4-yl)-2,2-dimethyltetrahydro-2H-pyran-4-yl)pyridine] | > 500 nM
27 | CC(C)CCN1CCC(C2(C(=O)c3ccccn3)CCOC(C)(C)C2)CC1 (stereo not drawn) [Example 76, (4-(1-isopentylpiperidin-4-yl)-2,2-dimethyltetrahydro-2H-pyran-4-yl)(pyridin-2-yl)methanone] | < 100 nM
28 | CC1(C)CC(C(=O)c2ccccn2)(N2CCN(CCc3ccncc3F)CC2)CCO1 (stereo not drawn) [Example 85, (4-(4-(2-(3-fluoropyridin-4-yl)ethyl)piperazin-1-yl)-2,2-dimethyltetrahydro-2H-pyran-4-yl)(pyridin-2-yl)methanone] | < 500 nM
29 | CC(C)CCN1CCCN(C2(C(=O)c3ccccn3)CCOC(C)(C)C2)CC1 (stereo not drawn) [Example 86, (4-(4-isopentyl-1,4-diazepan-1-yl)-2,2-dimethyltetrahydro-2H-pyran-4-yl)(pyridin-2-yl)methanone] | < 100 nM
30 | CC(C)OCCN1CCCN(C2(C(=O)c3ccccn3)CCOC(C)(C)C2)CC1 (stereo not drawn) [Example 88, (4-(4-(2-isopropoxyethyl)-1,4-diazepan-1-yl)-2,2-dimethyltetrahydro-2H-pyran-4-yl)(pyridin-2-yl)methanone] | < 500 nM
31 | CC(C)C1(N2CCN(CCc3ccccc3F)CC2)CCOC(C)(C)C1 (stereo not drawn) [Example 89, 1-(2-fluorophenethyl)-4-(4-isopropyl-2,2-dimethyltetrahydro-2H-pyran-4-yl)piperazine] | < 500 nM
32 | CC(C)C1(N2CCN(CCc3cccc(F)c3)CC2)CCOC(C)(C)C1 (stereo not drawn) [Example 91, 1-(3-fluorophenethyl)-4-(4-isopropyl-2,2-dimethyltetrahydro-2H-pyran-4-yl)piperazine] | < 500 nM
33 | CC(C)C1(N2CCN(CCc3cc(F)ccc3F)CC2)CCOC(C)(C)C1 (stereo not drawn) [Example 92, 1-(2,5-difluorophenethyl)-4-(4-isopropyl-2,2-dimethyltetrahydro-2H-pyran-4-yl)piperazine] | < 500 nM
34 | CCC1(N2CCN(CCc3cccc(F)c3)CC2)CCOC(C)(C)C1 (stereo not drawn) [Example 93, 1-(4-ethyl-2,2-dimethyltetrahydro-2H-pyran-4-yl)-4-(3-fluorophenethyl)piperazine] | < 500 nM
35 | CCC1(N2CCN(CCc3ccccc3F)CC2)CCOC(C)(C)C1 (stereo not drawn) [Example 94, 1-(4-ethyl-2,2-dimethyltetrahydro-2H-pyran-4-yl)-4-(2-fluorophenethyl)piperazine] | < 500 nM
36 | CCC1(N2CCN(CCc3cc(F)ccc3F)CC2)CCOC(C)(C)C1 (stereo not drawn) [Example 99, 1-(2,5-difluorophenethyl)-4-(4-ethyl-2,2-dimethyltetrahydro-2H-pyran-4-yl)piperazine] | < 500 nM
37 | CCC1(N2CCN(CCc3cccc(F)c3F)CC2)CCOC(C)(C)C1 (stereo not drawn) [Example 100, 1-(2,3-difluorophenethyl)-4-(4-ethyl-2,2-dimethyltetrahydro-2H-pyran-4-yl)piperazine] | < 500 nM
38 | CC(C)OCCCN1CCC(C2(C(=O)c3ccccn3)CCOC(C)(C)C2)CC1 (stereo not drawn) [Example 107, (4-(1-(3-isopropoxypropyl)piperidin-4-yl)-2,2-dimethyltetrahydro-2H-pyran-4-yl)(pyridin-2-yl)methanone] | > 500 nM
39 | CC1(C)CC(C(=O)c2ccccn2)(C2CCN(Cc3cccc(F)c3)CC2)CCO1 (stereo not drawn) [Example 108, (4-(1-(3-fluorobenzyl)piperidin-4-yl)-2,2-dimethyltetrahydro-2H-pyran-4-yl)(pyridin-2-yl)methanone] | < 500 nM
